The results in this text go back to ChEMBL document CHEMBL1201862, “PubChem BioAssay data set” (2004).

Holding throughout (assay): DTP human tumour cell line panel, 48 h
Experiment [1] concerns SK-MEL-2.
Experiment [2] deals with IGROV-1.
Experiment [3] has as its system HCC 2998.
For experiment [4], the system named is UACC-257.
In experiment [5] the test system is COLO 205.
In experiment [6] the test system is SF-539.
Experiment [7] concerns MDA-MB-231.
Experiment [8] deals with SF-268.
Experiment [9] deals with SF-295.
Experiment [10] has as its system RPMI-8226.
For experiment [11], the system named is MOLT-4.
Experiment [12] concerns NCI-H226.
Experiment [13] deals with SK-MEL-28.
The test system of experiment [14] is 786-0.
The subject of experiment [15] is A498.
Experiment [16] deals with A549.
Experiment [17] relates to SNB-19.
The test system of experiment [18] is Malme-3M.
The test system of experiment [19] is HT-29.
Experiment [20] concerns HCT-15.

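Compound exposure: 48 hours, 5 concentrations, 96-well plates. GI50: concentration for 50% inhibition of growth.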 Activity calls are given as the source filed them. Cut-off read from the data, not from the text of the source: active = GI50 up to about 1.1 µM and inactive = higher. A value given as a limit tells only on which side of the number the result lay.

One may read the GI50 as the concentration giving 50% growth inhibition. `Nc1ccc2c(SCc3ccc([N+](=O)[O-])cc3)c3ccccc3nc2c1`: the GI50 in experiment [1] was 16.4 µM (inactive); in experiment [2], 19.5 µM (inactive); in experiment [3], 21.5 µM (inactive); in experiment [4], 16.4 µM (inactive); in [5] it was 2.28 µM (inactive); in experiment [6] it was 16.4 µM (inactive). The GI50 in [7] is 25.5 µM (inactive); in [8], 15.2 µM (inactive); in experiment [9] it was 18.2 µM (inactive); in experiment [10] it was 2.7 µM (inactive); in [11], 2.3 µM (inactive); in experiment [12], 18.7 µM (inactive). Further, the GI50 in [13] was 15.6 µM (inactive); in experiment [14], 7.52 µM (inactive); in experiment [15] it was 22.5 µM (inactive); in experiment [16], 21.6 µM (inactive); in [17] it was 21.9 µM (inactive); in [18], 13.5 µM (inactive). Also, the figures for the GI50 in experiment [19] and in experiment [20] were 17.5 µM (inactive) and 13.5 µM, respectively.

With `COC1/C=C\C=C(/C)C(=O)Nc2cc3nc4ccc(Br)cc4oc-3c(c2=O)CC(C)CC(OC)C(O)C(C)/C=C(\C)C1OC(N)=O` (stereo not given), the GI50 in experiment [1] is 0.0741 µM (active); in [2] it was 0.436 µM (active); in experiment [3] it was 0.126 µM (active); in experiment [4] it was 0.0556 µM (active); in [5] it was 0.01 µM (active); in [6] it was 0.44 µM (active). For the same molecule, the GI50 is 0.00849 µM (active) in experiment [7]; 0.499 µM (active) in [8]; 12.6 µM (inactive) in experiment [9]; 0.119 µM (active) in [10]; < 0.0103 µM (active) in [11]; 1.75 µM (inactive) in experiment [12]. Moreover, the GI50 was 0.0137 µM (active) in experiment [13]; 0.0227 µM (active) in [14]; 13.5 µM (inactive) in experiment [15]; 3.61 µM (inactive) in experiment [16]; 13 µM (inactive) in experiment [17]; 0.0179 µM (active) in [18]. Also, the GI50 was < 0.0396 µM (active) in experiment [19] and 0.142 µM in [20].

For `CCN(CC)CC(O)c1ccc2ccc3ccccc3c2c1` (stereo not given), the GI50 in [1] is 16.1 µM (inactive); in experiment [2] it was 16.2 µM (inactive); in experiment [3] it was 11 µM (inactive); in experiment [4] it was 16.4 µM (inactive); in experiment [5], 13.9 µM (inactive); in experiment [6], 12.6 µM (inactive). Also, the GI50 was 14.5 µM (inactive) in [7]; 17.8 µM (inactive) in experiment [8]; 15.2 µM (inactive) in experiment [9]; 18.9 µM (inactive) in experiment [10]; 16.4 µM (inactive) in experiment [11]; 13.6 µM (inactive) in [12]. Also, the GI50 in experiment [13] was 19.7 µM (inactive); in experiment [14], 12.9 µM (inactive); in experiment [15], 12.6 µM (inactive); in experiment [16] it was 15.7 µM (inactive); in [17], 14.7 µM (inactive); in [18] it was 16.9 µM (inactive). Also, the GI50 in experiment [19] is 11.5 µM (inactive); in [20], 16.3 µM.

For the molecule `CC1(C)C/C=C\CCC(O)C(O)CCC(C)(C)C1=O` (stereo not given), the GI50 in [1] is > 100 µM (inactive); in [2], > 100 µM (inactive); in experiment [3] it was 17.1 µM (inactive); in experiment [4], > 100 µM (inactive); in experiment [5], > 100 µM (inactive); in experiment [6] it was > 100 µM (inactive). Moreover, the GI50 in [7], in experiment [8], in experiment [9], in [10], in experiment [11] and in experiment [12] was > 100 µM (inactive) throughout. In addition, the GI50 in experiment [13], in [14], in experiment [15], in experiment [16], in [17] and in experiment [18] was > 100 µM (inactive) in each case. Moreover, the GI50 in experiment [19] is > 100 µM (inactive); in experiment [20], greater than 100 µM.

Consider `COc1ccc(N2C(=O)CC(c3c[nH]c4ccccc34)C2=O)cc1` (stereo not given), for which the GI50 in experiment [1], in experiment [2], in experiment [3], in [4], in experiment [5] and in experiment [6] was > 100 µM (inactive) each time. The GI50 in experiment [7], in [8], in [9], in experiment [10], in experiment [11] and in experiment [12] was > 100 µM (inactive) each time. The GI50 in experiment [13], in experiment [14], in experiment [15], in [16], in [17] and in experiment [18] was > 100 µM (inactive) in each case. The GI50 is > 100 µM (inactive) in experiment [19] and greater than 100 µM in experiment [20].

Regarding `O=C(O)c1cc(/N=N/c2ccc([As](=O)(O)O)cc2)ccc1O`, the GI50 in experiment [1], in [2], in [3], in [4], in experiment [5] and in experiment [6] was > 100 µM (inactive) throughout. Further, the GI50 in experiment [7], in experiment [8], in experiment [9], in [10], in [11] and in experiment [12] was > 100 µM (inactive) each time. For the same molecule, the GI50 in [13], in experiment [14], in experiment [15], in [16], in [17] and in experiment [18] was > 100 µM (inactive) each time. In addition, the GI50 in [19] is > 100 µM (inactive); in experiment [20], greater than 100 µM.

As to `CCN(CC)c1ccc(/C=C/C2=NN(c3cccc(S(=O)(=O)O)c3)C3(C2)C(Cl)C(=O)N3c2nc3ccccc3s2)cc1` (stereo not given), the GI50 in [1] is 12.5 µM (inactive); in experiment [2] it was 4.88 µM (inactive); in experiment [3] it was 7.36 µM (inactive); in experiment [4] it was 7.24 µM (inactive); in [5], 14.1 µM (inactive); in [6], 3.32 µM (inactive). The GI50 was 7.8 µM (inactive) in experiment [7]; 16.8 µM (inactive) in experiment [8]; 13.3 µM (inactive) in experiment [9]; 2.32 µM (inactive) in [10]; 3.04 µM (inactive) in [11]; 13.1 µM (inactive) in experiment [12]. In addition, the GI50 in experiment [13] was 20.7 µM (inactive); in experiment [14] it was 5.65 µM (inactive); in experiment [15], 12 µM (inactive); in experiment [16], 11.2 µM (inactive); in experiment [17] it was 12.5 µM (inactive); in experiment [18], 11.1 µM (inactive). The GI50 in experiment [19] was 13.8 µM (inactive); in experiment [20], 7.03 µM.

For the molecule `Cc1cc(NC(=O)NC(=O)c2ccccc2NC(=O)C(C)N)ccc1Oc1ncc(Br)cn1` (stereo not given), the GI50 in experiment [1] is 0.153 µM (active); in experiment [2] it was 0.153 µM (active); in experiment [3] it was 0.298 µM (active); in [4] it was 0.547 µM (active); in experiment [5], 0.0719 µM (active); in experiment [6], 0.0158 µM (active). The GI50 in [7] was 0.143 µM (active); in experiment [8], 0.408 µM (active); in experiment [9], 0.0256 µM (active); in experiment [10] it was 0.207 µM (active); in experiment [11], 0.23 µM (active); in experiment [12], 0.0703 µM (active). The GI50 in experiment [13] is 0.184 µM (active); in experiment [14] it was 0.0559 µM (active); in experiment [15], 0.025 µM (active); in [16], 0.153 µM (active); in experiment [17] it was 0.248 µM (active); in [18], 0.188 µM (active). The GI50 in [19] is 0.116 µM (active); in experiment [20], 0.31 µM.

`O=C1CCN/C(=N\C(=O)C(F)(F)F)N1CCc1c[nH]c2ccccc12`: the GI50 in experiment [1], in [2], in experiment [3], in experiment [4], in [5] and in experiment [6] was > 100 µM (inactive) throughout. Moreover, the GI50 in experiment [7], in [8], in experiment [9], in experiment [10], in [11] and in experiment [12] was > 100 µM (inactive) each time. Moreover, the GI50 in experiment [13], in [14], in experiment [15], in [16], in experiment [17] and in experiment [18] was > 100 µM (inactive) each time. Also, the GI50 in experiment [19] was > 100 µM (inactive); in experiment [20], greater than 100 µM.

For the molecule `CC1C(=O)CC[C@@]2(C)C(=O)CCCC12O` (stereo not given in full), the GI50 in experiment [1], in experiment [2], in experiment [3], in experiment [4], in experiment [5] and in experiment [6] was > 100 µM (inactive) throughout. Moreover, the GI50 in experiment [7], in experiment [8], in experiment [9], in experiment [10], in experiment [11] and in [12] was > 100 µM (inactive) throughout. In addition, the GI50 in experiment [13], in experiment [14], in experiment [15], in experiment [16], in [17] and in [18] was > 100 µM (inactive) throughout. Also, the GI50 in [19] was > 100 µM (inactive); in experiment [20], greater than 100 µM.
